In US20220341825A1, “CELL-COMPATIBLE TISSUE CLARIFYING COMPOSITION” (OSAKA UNIVERSITY, priority 2019, published 2022):
Marks after values point to notes of the source that are not given here.

Legend:
[1] = test system: collagen solution (sCMF, sonicated collagen microfiber); test: Transparentizing ability in collagen model system (transmittance at 600 nm); settings: for transparentizing ability: screening in collagen (sCMF) solution; for transmittance: room temperature, 2 hours
Method: Since collagen is most abundant in biological tissue, a collagen solution was used as a model of the biological tissue to screen various compounds for their transparentizing ability. The outline of the screening experiment is as follows. Aqueous solutions of test compounds were added to multi-well plates containing aqueous solutions of sCMF (sonicated collagen microfiber) and allowed to stand at room temperature for a certain period of time, and subsequently, apparent transparency and transmittance at 600 nm were measured. 100 μL of 100 wt % AMP aqueous solution (refractive index: 1.43), 100 wt % CMP aqueous solution (refractive index: 1.42), 100 wt % TMP aqueous solution (refractive index: 1.41) or 25 wt % poly A aqueous solution (refractive index: 1.37) were added. The molecular weight of poly A was 100 to 500 kDa. Distilled water was added for a control. The resultant was allowed to stand at room temperature for 2 hours, and then the absorbance at 600 nm was measured with a plate reader (Synergy HTX). The obtained absorbance was substituted into an equation according to the Lambert-Beer formula to calculate the transmittance. 100 μL of 0.1 wt %, 0.5 wt %, 1 wt %, and 5 wt % sCMF aqueous solutions were placed in a 96-well plate, and 100 μL of 10 wt % (refractive index: 1.35), 25 wt % (refractive index: 1.38), 50 wt % (refractive index: 1.39), and 100 wt % (refractive index: 1.43) AMP aqueous solutions were added. After allowing the obtained samples to stand at room temperature for 2 hours, an absorbance at 600 nm was measured with a plate reader (Synergy HTX). The obtained absorbance was substituted into an equation according to the Lambert-Beer formula to calculate the transmittance.

human skin fibroblasts = test: Cell survival rate after transparentization treatment (trypan blue); format: cell-based
Method: The cell survival rates in the transparentization using AMP, ADP, ATP, CMP, TMP, fructose, glucose, trehalose, sucrose, antipyrine, RapiClear 1.52, and poly A were examined. 1.0×10^5 human skin fibroblasts were seeded in a 24-well plate and cultured in DMEM medium. The next day, after washing with PBS, 100 μL of 100 wt % AMP aqueous solution, 100 wt % ADP aqueous solution, 100 wt % ATP aqueous solution, 100 wt % CMP aqueous solution, 100 wt % TMP aqueous solution, 100 wt % fructose aqueous solution, 100 wt % glucose aqueous solution, 100 wt % trehalose aqueous solution, 100 wt % sucrose aqueous solution, 100 wt % antipyrine aqueous solution, RapiClear 1.52 aqueous solution, or 25 wt % poly A aqueous solution was added, and the resultant was incubated at 37° C. for 30 minutes. Distilled water was added for a control. After the incubation, 0.1% trypsin was directly added, and the resultant was incubated for 5 minutes. Cell dissociation was confirmed, 3 mL of DMEM medium was added, and then the resultant was collected into a 15-mL centrifuge tube, and centrifuged (1000 rpm, 5 minutes, 20° C.). The supernatant was aspirated and 100 μL of DMEM medium was added. 10 μL was separated from the resultant and placed in an Eppendorf tube, and 10 μL of trypan blue solution was added thereto. Then, 10 μL was separated and the number of cells was counted with an automated cell counter.

[2] = Refractive index of aqueous solutions; format: physicochemical
[3] = test system: three-dimensional tissue model (human skin fibroblasts, human umbilical vein endothelial cells); test: Transparentization test (1) on fixed three-dimensional tissue model; format: cell-based; settings: 100 wt % AMP, 37° C., 30 minutes; paraformaldehyde-fixed tissue
Method: (1) A solution containing fibrinogen at a concentration of 2 mg/100 μL, CMF at a concentration of 6 mg/100 μL, and thrombin at a concentration of 1 unit/100 μL using DMEM was prepared.
(2) 1.0×10^5 of human skin fibroblasts, 5.0×10^4 of human umbilical vein endothelial cells, 18 μL of a mixed medium of DMEM and EGM-2, and 2 μL of a thrombin solution were placed in an Eppendorf tube to prepare a cell suspension.
(3) The fibrinogen solution prepared in (1) was combined with a CMF solution, and 40 μL from 200 μL in total of the resulting solution was taken out and added to the cell suspension prepared in (2).
(4) The cell suspension prepared in (3) was placed in a glass bottom dish to prepare a 30-μL drop.
(5) After the drop was incubated for 2 hours, 2 mL of a mixed medium of DMEM and EGM-2 was added.
(6) The drop was cultured at 37° C. for 1 week, washed with PBS, and then fixed with paraformaldehyde for 15 minutes.
(7) The fixed tissue was subjected to CD31 immunostaining and DAPI staining.
(8) A transparentization treatment was performed with 100 wt % AMP at 37° C. for 30 minutes.

[4] = test system: living three-dimensional tissue model; test: Transparentization test (2) on living three-dimensional tissue model, confocal observation; format: cell-based, human; settings: 60 wt % AMP, 30 minutes
Method: (§1) A transparentization was performed on a living three-dimensional tissue model. 60 wt % AMP was used as a transparentizing agent, and RapiClear 1.52 and 61 wt % fructose were used for comparison. The experimental procedure was the same as that of Example 4, except that the paraformaldehyde fixation described in step (6) was not performed.
The upper part of FIG. 5 is images immediately before the treatment (0 minutes), in which the left panel is an image observed in a direction perpendicular to the dish, and the right panel is an image observed in a direction horizontal to the dish. The lower part of FIG. 5 is images immediately after the treatment (30 minutes), in which the left panel is an image observed in a direction perpendicular to the dish, and the right panel is an image observed in a direction horizontal to the dish. By the transparentization treatment with AMP, the central portion of the tissue was seen so that the deep part up to 200 μm could be observed.

[5] = test system: living three-dimensional tissue model; test: Cell survival rate in living three-dimensional tissue model (trypan blue); format: cell-based, human
Method: as §1
Further after 30, 60, and 90 minutes of the transparentization treatment in the same experimental system as described above, the tissue was disintegrated with proteinase K and collagenase (1:1) and subjected to trypan blue staining to count the number of viable cells. […] The transparentization treatment with AMP had no significant effect on the cell survival rate (a cell survival rate of 92%). […] The cell survival rate was as high as 92% and 90% after the 30-minute and 60-minute transparentization treatments, respectively. It was confirmed that a significant number of cells survived even after the 90-minute transparentization treatment (a cell survival rate of 45%).

[6] = 600 nm, 100 wt % aqueous solution added to sCMF solution
[7] = human skin fibroblasts, 100 wt % aqueous solutions (RapiClear 1.52 aqueous solution), 37° C., 30 minutes, n = 3

## Nc1ncnc2c1ncn2[C@@H]1O[C@H](COP(=O)(O)OP(=O)(O)O)[C@@H](O)[C@H]1O [ADP, adenosine diphosphate]
[1]
  transparentizing ability: high transparentizing ability
Human skin fibroblasts; human, 30 min, 100 wt %
  Survival rate (%): 87* %

## Nc1ncnc2c1ncn2[C@@H]1O[C@H](COP(=O)(O)O)[C@@H](O)[C@H]1O [AMP, adenosine monophosphate]
[1]; 10-100 wt % AMP, 0.1-5 wt % sCMF, 600 nm, 2 hours room temperature
  effect of AMP concentration on transmittance: as the AMP concentration was higher, the transmittance was higher
[1]; [6]
  transmittance: 75.6%
[1]
  transparentizing ability: high transparentizing ability
Human skin fibroblasts; human, 30 min, 100 wt %
  Survival rate (%): 92* %
[2]; 10 wt % aqueous solution
  refractive index: 1.35
[2]; 25 wt % aqueous solution
  refractive index: 1.38
[2]; 50 wt % aqueous solution
  refractive index: 1.39
[2]; 100 wt % aqueous solution
  refractive index: 1.43
[3]
  transparentization of tissue (naked eye): completely transparentized
[4]
  observable depth of tissue: up to 200 μm
[5]; human, 30 min
  cell survival rate: 92%
[5]; human, 60 min, 60 wt %
  cell survival rate: 90%
[5]; human, 90 min, 60 wt %
  cell survival rate: 45%

## Nc1ncnc2c1ncn2[C@@H]1O[C@H](COP(=O)(O)OP(=O)(O)OP(=O)(O)O)[C@@H](O)[C@H]1O [ATP, adenosine triphosphate]
[1]
  transparentizing ability: high transparentizing ability
Human skin fibroblasts; ATP transparentization treatment
  cell survival rate (in words): low
Human skin fibroblasts; [7]
  Survival rate (%): 26%

## Cc1cc(=O)n(-c2ccccc2)n1C [Antipyrine, antipyrine, reference compound]
Human skin fibroblasts; [7]
  Survival rate (%): 33%

## Nc1ccn([C@@H]2O[C@H](COP(=O)(O)O)[C@@H](O)[C@H]2O)c(=O)n1 [CMP, cytidine monophosphate]
[1]; [6]
  transmittance: 45.2%
[1]
  transparentizing ability: high transparentizing ability
Human skin fibroblasts; human, 30 min, 100 wt %
  Survival rate (%): 53%
[2]; 100 wt % aqueous solution
  refractive index: 1.42

## O=C(CO)[C@@H](O)[C@H](O)[C@H](O)CO [Fructose, fructose, reference compound]
Human skin fibroblasts; [7]
  Survival rate (%): 6%
[5]; 30 minutes of treatment, 60 wt % AMP, RapiClear 1.52, 61 wt % fructose
  cell survival rate: 22%

## OC[C@H]1O[C@@](CO)(O[C@H]2O[C@H](CO)[C@@H](O)[C@H](O)[C@H]2O)[C@@H](O)[C@@H]1O [Sucrose, sucrose, reference compound]
Human skin fibroblasts; human, 30 min, 100 wt %
  Survival rate (%): 14%

## Cc1cn([C@@H]2O[C@H](COP(=O)(O)O)[C@@H](O)[C@H]2O)c(=O)[nH]c1=O [TMP, 5-methyluridine monophosphate]
[1]; [6]
  transmittance: 31.6%
[1]
  transparentizing ability: high transparentizing ability
Human skin fibroblasts; human, 30 min, 100 wt %
  Survival rate (%): 42%
[2]; 100 wt % aqueous solution
  refractive index: 1.41

## OC[C@H]1O[C@H](O[C@H]2O[C@H](CO)[C@@H](O)[C@H](O)[C@H]2O)[C@H](O)[C@@H](O)[C@@H]1O [Trehalose, trehalose, reference compound]
Human skin fibroblasts; human, 30 min, 100 wt %
  Survival rate (%): 25%

## poly A
[1]; 600 nm, 25 wt % aqueous solution added to sCMF solution
  transmittance: 69.0%
[1]
  transparentizing ability: high transparentizing ability
Human skin fibroblasts
  effect on the survival rate (in words): little effect on the survival rate
[2]; 25 wt % aqueous solution
  refractive index: 1.37
